# Paper PMC8954547, “Nonpeptidic Z360-Analogs Tagged with Trivalent Radiometals as Anti-CCK2R Cancer Theranostic Agents: A Preclinical Study” (Pharmaceutics, 2022)
# Columns and labels:
# HEK293-CCK2i4svR cells = assay: Radioligand uptake and internalization in HEK293-CCK2i4svR cells; assay type: cell-based, human
# In short: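 Cells incubated at 37 °C with 250 fmol radioligand in DMEM/1% FBS for 1 h ([111In]In-GAS1/2/3 also 15, 30 min, 2 h). Acid wash (glycine pH 2.8) gave membrane-bound and 1 N NaOH lysis gave internalized fractions, gamma-counted. Specific values (minus 1 µM DG2 nonspecific) as % of added activity per well.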
# [1] = system: SCID mice bearing twin HEK293-CCK2i4svR and wtHEK293 tumors; assay: Biodistribution in SCID mice bearing twin HEK293-CCK2i4svR and wtHEK293 xenografts; assay type: in vivo
# In short: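 Uptake is expressed as %IA/g (mean ± SD, n = 4) from gamma counting of blood, organs and tumours collected at set times: 1, 4 and 24 h pi for ^67Ga, 4 and 24 h for ^111In (±gelofusine), 4–96 h for ^177Lu. Radioligands were given iv at 7–40 pmol to SCID mice bearing twin CCK2i4svR-transfected and wild-type HEK293 xenografts.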
compound,measurement,setting,value
CC(C)(C)C(=O)CN1C(=O)[C@H](NC(=O)Nc2cccc(C(=O)NCCOCCOCCOCCNC(=O)[C@H](CCC(=O)O)NC(=O)CCC(C(=O)O)N3CCN(CC(=O)[O-])CCN(CC(=O)[O-])CCN(CC(=O)[O-])CC3)c2)CN(C2CCCCC2)c2ccccc21.[177Lu+3] (stereo in doubt) [[^177Lu]Lu-GAS3],Internalized to membrane-bound ratio,HEK293-CCK2i4svR cells,2.8
same,Cell uptake (internalized + membrane-bound),"HEK293-CCK2i4svR cells; 1 h 37 °C, specific, of total added activity",7.65 ± 1.31%
same,Tumor to kidney ratio,[1]; 96 pi,13.8
same,"Biodistribution, Blood",[1]; 4 h pi,3.19 ± 0.44 %IA/g
same,"Biodistribution, CCK2i4svR(+) Tumor",[1]; 4 h pi,20.88 ± 1.20 %IA/g
same,"Biodistribution, CCK2i4svR(-) Tumor",[1]; 4 h pi,1.14 ± 0.50 %IA/g
same,"Biodistribution, Femur",[1]; 4 h pi,0.60 ± 0.07 %IA/g
same,"Biodistribution, Heart",[1]; 4 h pi,0.94 ± 0.21 %IA/g
same,"Biodistribution, Intestines",[1]; 4 h pi,1.85 ± 0.18 %IA/g
same,"Biodistribution, Kidneys",[1]; 4 h pi,8.86 ± 0.67 %IA/g
same,"Biodistribution, Liver",[1]; 4 h pi,2.73 ± 0.31 %IA/g
same,"Biodistribution, Lungs",[1]; 4 h pi,1.94 ± 0.21 %IA/g
same,"Biodistribution, Muscle",[1]; 4 h pi,0.31 ± 0.04 %IA/g
same,"Biodistribution, Pancreas",[1]; 4 h pi,1.00 ± 0.13 %IA/g
same,"Biodistribution, Spleen",[1]; 4 h pi,1.19 ± 0.12 %IA/g
same,"Biodistribution, Stomach",[1]; 4 h pi,0.64 ± 0.07 %IA/g
same,Tumor to kidney ratio,[1]; 4 h pi,2.4
same,"Biodistribution, Blood",[1]; 24 h pi,0.07 ± 0.01 %IA/g
same,"Biodistribution, CCK2i4svR(+) Tumor",[1]; 24 h pi,5.38 ± 0.77 %IA/g
same,"Biodistribution, CCK2i4svR(-) Tumor",[1]; 24 h pi,0.37 ± 0.12 %IA/g
same,"Biodistribution, Femur",[1]; 24 h pi,0.11 ± 0.02 %IA/g
same,"Biodistribution, Heart",[1]; 24 h pi,0.08 ± 0.02 %IA/g
same,"Biodistribution, Intestines",[1]; 24 h pi,0.17 ± 0.04 %IA/g
same,"Biodistribution, Kidneys",[1]; 24 h pi,1.42 ± 0.29 %IA/g
same,"Biodistribution, Liver",[1]; 24 h pi,0.51 ± 0.05 %IA/g
same,"Biodistribution, Lungs",[1]; 24 h pi,0.26 ± 0.02 %IA/g
same,"Biodistribution, Muscle",[1]; 24 h pi,0.03 ± 0.01 %IA/g
same,"Biodistribution, Pancreas",[1]; 24 h pi,0.07 ± 0.01 %IA/g
same,"Biodistribution, Spleen",[1]; 24 h pi,0.45 ± 0.05 %IA/g
same,"Biodistribution, Stomach",[1]; 24 h pi,0.11 ± 0.01 %IA/g
same,Tumor to kidney ratio,[1]; 24 h pi,3.8
same,"Biodistribution, Blood",[1]; 48 h pi,0.05 ± 0.01 %IA/g
same,"Biodistribution, CCK2i4svR(+) Tumor",[1]; 48 h pi,3.39 ± 0.23 %IA/g
same,"Biodistribution, CCK2i4svR(-) Tumor",[1]; 48 h pi,0.25 ± 0.14 %IA/g
same,"Biodistribution, Femur",[1]; 48 h pi,0.14 ± 0.04 %IA/g
same,"Biodistribution, Heart",[1]; 48 h pi,0.08 ± 0.01 %IA/g
same,"Biodistribution, Intestines",[1]; 48 h pi,0.07 ± 0.01 %IA/g
same,"Biodistribution, Kidneys",[1]; 48 h pi,0.47 ± 0.07 %IA/g
same,"Biodistribution, Liver",[1]; 48 h pi,0.35 ± 0.09 %IA/g
same,"Biodistribution, Lungs",[1]; 48 h pi,0.18 ± 0.03 %IA/g
same,"Biodistribution, Muscle",[1]; 48 h pi,0.04 ± 0.01 %IA/g
same,"Biodistribution, Pancreas",[1]; 48 h pi,0.08 ± 0.04 %IA/g
same,"Biodistribution, Spleen",[1]; 48 h pi,0.43 ± 0.10 %IA/g
same,"Biodistribution, Stomach",[1]; 48 h pi,0.08 ± 0.01 %IA/g
same,"Biodistribution, Blood",[1]; 72 h pi,0.04 ± 0.00 %IA/g
same,"Biodistribution, CCK2i4svR(+) Tumor",[1]; 72 h pi,1.99 ± 0.31 %IA/g
same,"Biodistribution, CCK2i4svR(-) Tumor",[1]; 72 h pi,0.13 ± 0.03 %IA/g
same,"Biodistribution, Femur",[1]; 72 h pi,0.06 ± 0.00 %IA/g
same,"Biodistribution, Heart",[1]; 72 h pi,0.04 ± 0.01 %IA/g
same,"Biodistribution, Intestines",[1]; 72 h pi,0.04 ± 0.01 %IA/g
same,"Biodistribution, Kidneys",[1]; 72 h pi,0.17 ± 0.04 %IA/g
same,"Biodistribution, Liver",[1]; 72 h pi,0.32 ± 0.02 %IA/g
same,"Biodistribution, Lungs",[1]; 72 h pi,0.15 ± 0.01 %IA/g
same,"Biodistribution, Muscle",[1]; 72 h pi,0.03 ± 0.01 %IA/g
same,"Biodistribution, Pancreas",[1]; 72 h pi,0.03 ± 0.01 %IA/g
same,"Biodistribution, Spleen",[1]; 72 h pi,0.44 ± 0.07 %IA/g
same,"Biodistribution, Stomach",[1]; 72 h pi,0.06 ± 0.02 %IA/g
same,"Biodistribution, Blood",[1]; 96 h pi,0.04 ± 0.00 %IA/g
same,"Biodistribution, CCK2i4svR(+) Tumor",[1]; 96 h pi,1.52 ± 0.43 %IA/g
same,"Biodistribution, CCK2i4svR(-) Tumor",[1]; 96 h pi,0.00 ± 0.04 %IA/g
same,"Biodistribution, Femur",[1]; 96 h pi,0.06 ± 0.00 %IA/g
same,"Biodistribution, Heart",[1]; 96 h pi,0.03 ± 0.01 %IA/g
same,"Biodistribution, Intestines",[1]; 96 h pi,0.03 ± 0.01 %IA/g
same,"Biodistribution, Kidneys",[1]; 96 h pi,0.11 ± 0.03 %IA/g
same,"Biodistribution, Liver",[1]; 96 h pi,0.25 ± 0.02 %IA/g
same,"Biodistribution, Lungs",[1]; 96 h pi,0.14 ± 0.01 %IA/g
same,"Biodistribution, Muscle",[1]; 96 h pi,0.01 ± 0.00 %IA/g
same,"Biodistribution, Pancreas",[1]; 96 h pi,0.02 ± 0.00 %IA/g
same,"Biodistribution, Spleen",[1]; 96 h pi,0.39 ± 0.02 %IA/g
same,"Biodistribution, Stomach",[1]; 96 h pi,0.04 ± 0.00 %IA/g
same,Background clearance / excretion route,"[1]; mouse, in vivo",rapid background clearance predominantly via the kidneys
